Measured values: US7435837B2, “Dihydrobenzofuranyl alkanamine derivatives and methods for using same” (Wyeth, priority 2003, dated 2008)
Counter-ions that a name gives are not always drawn.

| Compound | melting point |
| --- | --- |
| Cc1ccccc1-c1cccc2c1OC(CN)C2 (single isomer, unassigned; (-)) (as salt: hydrochloride) [Example 49, (−)-1-[7-(2-methylphenyl)-2,3-dihydro-1-benzofuran-2-yl]methanamine] | 208 to 209 °C |
| NCC1Cc2cccc(-c3ccc(Cl)cc3)c2O1 (racemic) (as salt: hydrochloride) [Example 76, (±)-1-[7-(4-chlorophenyl)-2,3-dihydro-1-benzofuran-2-yl]methanamine] | 212 to 214 °C |
| Cc1ccccc1-c1cc(Cl)cc2c1OC(CN)C2 (single isomer, unassigned; (+)) (as salt: hydrobromid) [Example 96, (+)-1-[5-chloro-7-(2-methylphenyl)-2,3-dihydro-1-benzofuran-2-yl]methanamine] | 170 to 172 °C |
| COc1ccc(-c2cccc3c2OC(CN)C3)c(OC)c1 (racemic) (as salt: hydrochloride) [Example 143, (±)-1-[7-(2,4-dimethoxyphenyl)-2,3-dihydro-1-benzofuran-2-yl]methanamine] | 175 to 178 °C |
| NCC1Cc2cccc(-c3cccc(F)c3)c2O1 (racemic) (as salt: hydrochloride) [Example 64, (±)-1-[7-(3-fluorophenyl)-2,3-dihydro-1-benzofuran-2-yl]methanamine] | 200 to 202 °C |
| CC(C)(C)c1cc(Cl)cc2c1OC(CN)C2 (single isomer, unassigned; (-)) (as salt: hydrobromid) [Example 28, (−)-1-(7-tert-butyl-5-chloro-2,3-dihydro-1-benzofuran-2-yl)methanamine] | 219 to 222 °C |

The next lines start with the values.

| melting point | Compound |
| --- | --- |
| 195 to 197 °C | CNCC1Cc2cccc(-c3c(Cl)cccc3Cl)c2O1 (single isomer, unassigned; (-)) (as salt: hydrochloride) [Example 434, (−)-{[7-(2,6-dichlorophenyl)-2,3-dihydro-1-benzofuran-2-yl]methyl}methylamine] |
| 202 to 204 °C | CC(C)c1ccccc1-c1cccc2c1OC(CN)C2 (racemic) (as salt: hydrochloride) [Example 61, (±)-[7-(2-isopropylphenyl)-2,3-dihydro-1-benzofuran-2-yl]methylamine] |
| 166 to 168 °C | COc1ccc(-c2cccc3c2OC(CN)C3)c(OC)c1 (single isomer, unassigned; (-)) (as salt: hydrochloride) [Example 144, (−)-1-[7-(2,4-dimethoxyphenyl)-2,3-dihydro-1-benzofuran-2-yl]methanamine] |
| 231 to 234 °C | NCC1Cc2cc(Cl)cc(-c3ccccc3Cl)c2O1 (racemic) (as salt: hydrochloride) [Example 87, (±)-1-[5-chloro-7-(2-chlorophenyl)-2,3-dihydro-1-benzofuran-2-yl]methanamine] |
| 156 to 158 °C | CN(C)C[C@H]1Cc2cc(F)cc(-c3c(Cl)cccc3Cl)c2O1 (as salt: hydrochloride) [Example 547, (R)-[7-(2,6-dichloro-phenyl)-5-Fluoro-2,3-dihydro-benzofuran-2-ylmethyl]dimethylamine] |
| > 250 °C | NCC1Cc2cccc(-c3ccc(C(F)(F)F)cc3)c2O1 (racemic) (as salt: hydrochloride) [Example 82, (±)-1 {7-[4-(trifluoromethyl)phenyl]-2,3-dihydro-1-benzofuran-2-yl}methanamine] |
| > 250 °C | Cc1cccc(C)c1-c1cccc2c1OC(CN)C2 (racemic) (as salt: hydrochloride) [Example 56, (±)-1-[7-(2,6-dimethylphenyl)-2,3-dihydro-1-benzofuran-2-yl]methanamine] |
| 157 to 159 °C | COc1cc2c(c(C(C)(C)C)c1)OC(CN)C2 (single isomer, unassigned; (-)) (as salt: hydrochloride) [Example 115, (−)-1-(7-tert-butyl-5-methoxy-2,3-dihydro-1-benzofuran-2-yl)methanamine] |
